# Results reported in US20110021517A1, “ANTITUMOR COMBINATION COMPRISING A MORPHOLINYL ANTHRACYCLINE DERIVATIVE AND DEMETHYLATING AGENTS” (NERVIANO MEDICAL SCIENCES S.R.L., priority 2008, published 2011).
# Read-outs that look alike come from different tables or passages of the source.
# Assays:
# [1] = tested on: L1210 cells; test: Cytotoxic effect of nemorubicin on L1210 cells with or without pre-treatment with 5-aza-2′-deoxycytidine (cell counting, Coulter Counter); type: cell-based, murine; details: for IC50: 24 h nemorubicin treatment, read-out: IC50 (dose inhibiting 50% cell growth)
# Procedure: (§1) The effect of 5-aza-2′-deoxycytidine on the cytotoxic activity of morpholinyl anthracycline derivative (nemorubicin) was tested on a murine leukaemia cell line (L1210 cells). Cells were grown in RPMI 1640 medium supplemented with 10% foetal calf serum. Exponentially growing cells were seeded and exposed to 5-aza-2′-deoxycytidine immediately after seeding for 6 days, so as to allow efficient demethylation of the CpG islands. […] Six days following 5-aza-2′-deoxycytidine treatment, cells were diluted and treated with different concentrations of nemorubicin (50, 100, 200 and 500 nM) in comparison with cells not pretreated with the demethylating agent 5-aza-2′-deoxycytidine. In vitro drug sensitivity was determined by counting surviving cells by a Coulter Counter apparatus. The antiproliferative activity of the drug was evaluated after 24 h treatment and calculated from dose-response curves and expressed as dose inhibiting 50% cell growth (IC50). IC50 values were calculated from two-three independent experiments each consisting of at least three replicates. Combination indices (CI) were calculated using a computer program for multiple drug effect analysis based on the equation of Chou-Talalay (Adv Enzyme Regul 1984; 22:27-55) for mutually non-exclusive drugs. CI values <0.3-0.8 are indicative of synergism, 0.8-1.2 are indicative of additivity, […] are indicative of antagonism.
# [2] = tested on: L1210/MMRDX cells; test: Cytotoxic effect of nemorubicin on nemorubicin-resistant L1210/MMRDX cells with or without pre-treatment with 5-aza-2′-deoxycytidine; type: cell-based, murine; details: for IC50: 24 h nemorubicin treatment, read-out: IC50 (dose inhibiting 50% cell growth)
# Procedure: as §1
# The effect of 5-aza-2′-deoxycytidine on the cytotoxic activity of nemorubicin was tested in comparison on L1210 cells and on the strain resistant to nemorubicin (L1210/MMRDX) (Geroni C. et al, Br J Cancer 9:315-19, 1994). Cells were grown in RPMI 1640 medium supplemented with 10% foetal calf serum. Exponentially growing cells were seeded and exposed to 5-aza-2′-deoxycytidine and nemorubicin as reported here above. In vitro drug sensitivity was determined by counting surviving cells by a Coulter Counter apparatus. The antiproliferative activity of the drug was evaluated after 24 h treatment and calculated from dose-response curves and expressed as IC50. IC50 values were calculated from two-three independent experiments each consisting of at least three replicates. Combination indices (CI) were calculated as described above.
substance,measurement,setting,value
"(8S-cis, 2″S)-7,8,9,10-tetrahydro-6,8,11-trihydroxy-8-(hydroxyacetyl)-1-methoxy-10-{[2,3,6-trideoxy-3-(2-methoxy-4-morpholinyl)-α-L-lyxo-hexopyranosyl]oxy}-5,12-naphthacenedione [nemorubicin]",IC50,[1]; L1210 cells pretreated with 5-aza-2′-deoxycytidine for 6 days,130 nM
same,IC50,[1]; L1210 cells untreated (no 5-aza-2′-deoxycytidine pretreatment),210 nM
same,Combination effect based on CI value (in words),"[1]; combination of nemorubicin and 5-aza-2′-deoxycytidine, L1210 cells",synergistic effect
same,"CI (combination index, Chou-Talalay)","[1]; nemorubicin combined with 5-aza-2′-deoxycytidine pretreatment, L1210 cells",0.14
same,IC50,[2]; L1210/MMRDX cells pretreated with 5-aza-2′-deoxycytidine,140 nM
same,IC50,[2]; L1210/MMRDX cells untreated (no 5-aza-2′-deoxycytidine pretreatment),480 nM
same,Combination effect based on CI value (in words),"[2]; combination of nemorubicin and 5-aza-2′-deoxycytidine, L1210/MMRDX cells",strong synergistic effect
same,"CI (combination index, Chou-Talalay)","[2]; nemorubicin combined with 5-aza-2′-deoxycytidine pretreatment, L1210/MMRDX cells",0.06
